Where two headings read alike, the source gives them in different places.
What was measured:
[1] = system: sulprostone-induced allodynic mice; assay: Sulprostone-induced allodynia mouse model, paint brush stimulation pain score
[2] = system: intraocular pressure of male New Zealand rabbits; assay: Normotensive intraocular pressure in rabbits after topical instillation (pneumatonometer); format: in vivo, rabbit
Method: Male New Zealand rabbits are used to evaluate drug effects on normotensive IOP measurements. The rabbits are carefully handled so as to minimize excitement. They should be picked up by the nape of the neck, with their hindlegs supported by the other hand. After removing the rabbit from its cage, approximately 25 ul of dilute OphtheticR (0.05%) topical anesthesia is administered to each eye. An initial IOP determination is made in both eyes. Rabbits with 3 mmHg or greater difference in IOP between right and left eyes are replaced at this time.
Immediately following the time zero (T=0) reading in both eyes, one eye of each experimental rabbit is instilled with an ophthalmic formulation of 0.1% (w/w) brimonidine tartrate onto the cornea of the randomly selected test eye. […] The other eye is given the vehicle containing no drug. The ophthalmic formulations comprise 50 ppm Purite®(stabilized chlorine dioxide), 0.5% carboxymethylcellulose, 0.6% (w/w) borate buffer (pH 7.7) and small amounts of salts (NaCl, KCl, CaCl2, MgCl2). Intraocular pressure of both treated (ipsalateral)and untreated (contralateral) eyes is measured at the indicated time intervals for seven hours. Pressure readings utilize a Model 30 Classic™ Pneumatonometer as the measuring and recording instrument. It measures intraocular pressure (IOP) non-invasively through applanation tonometry.

[3] = system: Chung model of allodynic rats; conditions: for analgesia (reversal of tactile allodynia): 30 minutes after administration
Source text: A model for chronic pain (in particular peripheral neuropathy) involves the surgical ligation of the L5 (and optionally the L6) spinal nerves on one side in experimental animals. Rats recovering from the surgery gain weight and display a level of general activity similar to that of normal rats. However, these rats develop abnormalities of the foot, wherein the hindpaw is moderately everted and the toes are held together. More importantly, the hindpaw on the side affected by the surgery appears to become sensitive to pain from low-threshold mechanical stimuli, such as that producing a faint sensation of touch in a human, within about 1 week following surgery. This sensitivity to normally non-painful touch is called “tactile allodynia” and lasts for at least two months. The response includes lifting the affected hindpaw to escape from the stimulus, licking the paw and holding it in the air for many seconds. None of these responses is normally seen in the control group.
Rats are anesthetized before surgery. The surgical site is shaved and prepared either with betadine or novacaine. Incision is made from the thoracic vertebra X111 down toward the sacrum. Muscle tissue is separated from the spinal vertebra (left side) at the L4-S2 levels. The L6 vertebra is located and the transverse process is carefully removed with a small rongeur to expose the L4-L6 spinal nerves. The L5 and L6 spinal nerves are isolated and tightly ligated with 6-0 silk thread. The same procedure is done on the right side as a control, except no ligation of the spinal nerves is performed.
A complete hemostasis is confirmed, then the wounds are sutured. A small amount of antibiotic ointment is applied to the incised area, and the rat is transferred to the recovery plastic cage under a regulated heat-temperature lamp. […]
In the Chung rat model, tactile allodynia is measured prior to and 30 minutes after drug administration using von Frey hairs that are a series of fine hairs with incremental differences in stiffness. […]

male Sprague-Dawley rats = conditions: for sedation: graded 30 minutes after administration
Method: To test sedation, six male Sprague-Dawley rats are given various doses of a clonidine intrathecal injection. Sedation is graded 30 minutes following administration of the drug by monitoring locomotor skills as follows. Rats are placed in a dark covered chamber and a digicom analyzer (Omnitech Electronic) quantitates their exploratory behavior for a five-minute period. The machine records each time the rat interrupts an array of 32 photoelectric beams in the X and Y orientation, and quantifies the difference in behavior as compared to control animals given saline instead of clonidine.

## CS(=O)(=O)NC(=O)CCC/C=C\C[C@H]1C(=O)C[C@@H](O)[C@@H]1/C=C/[C@@H](O)COc1ccccc1 [sulprostone]
[1]; sulprostone 200 ng intrathecal alone, 16-point scale
  pain score: 12-13

## Brc1c(NC2=NCCN2)ccc2nccnc12 [brimonidine]
[2]; 0.1% brimonidine alone (FIG. 4B)
  intraocular pressure: pronounced increase in intraocular pressure within the first 30 minutes, followed by a lowering of intraocular pressure thereafter
[2]; 0.1% brimonidine and 0.001% prazosin (FIG. 4C)
  intraocular pressure, difference from brimonidine alone: Little difference
[2]; 0.1% brimonidine and 0.003% prazosine (FIG. 4D)
  initial intraocular pressure: only a very small increase in initial intraocular pressure

## COc1cc2nc(N3CCN(C(=O)c4ccco4)CC3)nc(N)c2cc1OC [prazosin]
[2]; 35 microliters 0.003% prazosin alone (FIG. 4A)
  intraocular pressure of treated eye compared to untreated eye: small initial drop in intraocular pressure compared to the untreated eye, followed by a gradual increase in pressure

## CN(C)CCC=C1c2ccccc2CCc2ccccc21 [amitriplylene, amitriptylene]
[1]; amitriptylene intrathecal with 30 ug/kg IP 5-methylurapadil versus with saline
  reduction in the dosage necessary to achieve maximal analgesia: approximately three

## Clc1cccc(Cl)c1N=C1NCCN1 [clonidine]
[3]; intrathecal dose of 0.1 μg
  analgesia (reversal of tactile allodynia): no analgesia
[3]; intrathecal dose of 1.0 μg
  analgesia (reversal of tactile allodynia): maximal analgesia
[3]; rats, intrathecal
  analgesic activity, dose-dependent: analgesic
Male Sprague-Dawley rats; intrathecal dose of 3.0 μg
  sedation: mildly sedating
Male Sprague-Dawley rats; intrathecal dose of 10 μg
  sedation: maximal sedation
Male Sprague-Dawley rats; rats, intrathecal clonidine alone
  separation between analgesia and sedation: 3-10 fold
[1]; 5-methyl urapidil 30 μg/kg intraperitoneal 5 minutes before clonidine
  shift of the effective analgesic dose lower versus clonidine alone: 10 fold
[1]; clonidine 0.03 microgram intrathecal, prazosin given 15 minutes before
  pain score: 13.3±0.9
[1]; clonidine 0.1 microgram intrathecal in the absence of prazosin
  analgesia: not analgesic
[1]; clonidine 0.1 microgram intrathecal, prazosin given 15 minutes before
  pain score: 4.8±0.8
[1]; clonidine 0.4 microgram intrathecal, prazosin given 15 minutes before
  pain score: 4.8±0.6
[1]; clonidine (various doses) and 5-methylurapidil 1 microgram coadministered intrathecally
  analgesia compared with intraperitoneal injection of the alpha 1 antagonist: substantially similar
[1]; clonidine alone
  therapeutic window between pain and sedation: 3-10 fold
[1]; clonidine co-administered with alpha 1 antagonist (5-methyl urapidil 30 μg/kg i.p.)
  therapeutic window between pain and sedation: 30-100 fold
[1]; coadministration of prazosin 100 ng/kg i.p.
  decrease in the EC50 for clonidine analgesia versus i.t. clonidine alone: four
[1]; mice, intrathecal
  analgesic activity, dose-dependent: analgesic
